Reference: patent publication US9326986B2, “Quinazolinone, quinolone and related analogs as sirtuin modulators” (GLAXOSMITHKLINE LLC, priority 2008, dated 2016)

Target: T1, SIRT1 (Homo sapiens, UniProt Q96EB6)
T1 sequence (Q96EB6 1-747): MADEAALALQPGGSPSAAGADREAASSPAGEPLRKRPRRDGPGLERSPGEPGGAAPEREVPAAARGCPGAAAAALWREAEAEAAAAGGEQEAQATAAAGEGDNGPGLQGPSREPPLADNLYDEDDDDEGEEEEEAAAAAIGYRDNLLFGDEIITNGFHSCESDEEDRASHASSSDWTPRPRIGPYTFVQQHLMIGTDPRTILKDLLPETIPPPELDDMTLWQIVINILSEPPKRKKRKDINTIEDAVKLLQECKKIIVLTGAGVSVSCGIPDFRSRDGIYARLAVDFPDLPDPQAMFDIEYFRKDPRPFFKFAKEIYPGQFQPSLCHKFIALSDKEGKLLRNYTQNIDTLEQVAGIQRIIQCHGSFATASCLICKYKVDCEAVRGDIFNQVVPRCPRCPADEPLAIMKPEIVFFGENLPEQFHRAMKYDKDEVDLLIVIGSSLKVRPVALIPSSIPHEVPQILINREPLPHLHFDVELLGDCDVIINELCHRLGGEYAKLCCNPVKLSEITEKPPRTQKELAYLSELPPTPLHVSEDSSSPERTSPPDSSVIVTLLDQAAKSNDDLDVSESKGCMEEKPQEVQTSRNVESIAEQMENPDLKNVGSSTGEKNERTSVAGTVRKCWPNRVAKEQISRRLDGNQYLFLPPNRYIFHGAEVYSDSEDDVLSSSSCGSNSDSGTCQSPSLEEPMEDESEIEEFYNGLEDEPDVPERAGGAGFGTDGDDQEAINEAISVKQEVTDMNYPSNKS
Assay: Mass spectrometry based assay to identify modulators of SIRT1 activity (deacetylation of p53-based acetylated peptide)
Assay type: biochemical
Conditions: 10 nM SIRT1, 0.5 μM peptide substrate, 120 μM βNAD+, 25 minutes at 25° C.; for EC1.5 μM: SIRT1 activation
Excerpt: A mass spectrometry based assay was used to identify modulators of SIRT1 activity. The mass spectrometry based assay utilizes a peptide having 20 amino acid residues as follows: Ac-EE-K(biotin)-GQSTSSHSK(Ac)NleSTEG-K(5TMR)-EE-NH2 (SEQ ID NO: 1) wherein K(Ac) is an acetylated lysine residue and Nle is a norleucine. The peptide is labeled with the fluorophore 5TMR (excitation 540 nm/emission 580 nm) at the C-terminus. The sequence of the peptide substrate is based on p53 with several modifications. In addition, the methionine residue naturally present in the sequence was replaced with the norleucine because the methionine may be susceptible to oxidation during synthesis and purification.
The mass spectrometry assay is conducted as follows: 0.5 μM peptide substrate and 120 μM βNAD^+ is incubated with 10 nM SIRT1 for 25 minutes at 25° C. in a reaction buffer (50 mM Tris-acetate pH 8, 137 mM NaCl, 2.7 mM KCl, 1 mM MgCl2, 5 mM DTT, 0.05% BSA). Test compounds may be added to the reaction as described above. […] After the 25 minute incubation with SIRT1, 10 μL of 10% formic acid is added to stop the reaction. Reactions are sealed and frozen for later mass spec analysis. Determination of the mass of the substrate peptide allows for precise determination of the degree of acetylation (i.e. starting material) as compared to deacetylated peptide (product).
A control for inhibition of sirtuin activity is conducted by adding 1 μL of 500 mM nicotinamide as a negative control at the start of the reaction (e.g., permits determination of maximum sirtuin inhibition). A control for activation of sirtuin activity is conducted using 10 nM of sirtuin protein, with 1 μL of DMSO in place of compound, to determine the amount of deacetylation of the substrate at a given timepoint within the linear range of the assay. This timepoint is the same as that used for test compounds and, within the linear range, the endpoint represents a change in velocity.
For the above assay, SIRT1 protein was expressed and purified as follows. […] The protein was expressed by induction with 1 mM IPTG as an N-terminal His-tag fusion protein at 18° C. overnight and harvested at 30,000×g. Cells were lysed with lysozyme in lysis buffer (50 mM Tris-HCl, 2 mM Tris[2-carboxyethyl]phosphine (TCEP), 10 μM ZnCl2, 200 mM NaCl) and further treated with sonication for 10 min for complete lysis. The protein was purified over a Ni-NTA column (Amersham) and fractions containing pure protein were pooled, concentrated and run over a sizing column (Sephadex S200 26/60 global). The peak containing soluble protein was collected and run on an Ion-exchange column (MonoQ). Gradient elution (200 mM-500 mM NaCl) yielded pure protein. This protein was concentrated and dialyzed against dialysis buffer (20 mM Tris-HCl, 2 mM TCEP) overnight. The protein was aliquoted and frozen at −80° C. until further use.
Sirtuin modulating compounds that activated SIRT1 were identified using the assay described above and are shown below in Tables 1 and 2. The EC1.5 values for the activating compounds are represented by A (EC1.5<1.0 μM), B (EC1.5 1-25 μM), C (EC1.5>25 μM). The percent maximum fold activation is represented by A (Fold activation>200%) or B (Fold Activation<200%).

SMILES	% Fold Act. (percent maximum fold activation)	EC1.5 μM
CCn1c(-c2cccc(C(F)(F)F)c2)nc2c(NC(=O)c3cnccn3)cccc2c1=O [Compound 232]	A (Fold activation>200%)	A (EC1.5<1.0 μM)
CCCn1c(-c2cccc(C(F)(F)F)c2)nc2c(NC(=O)c3cnccn3)cccc2c1=O [Compound 233]	A (Fold activation>200%)	A (EC1.5<1.0 μM)
CC(C)Cn1c(-c2cccc(C(F)(F)F)c2)nc2c(NC(=O)c3cnccn3)cccc2c1=O [Compound 234]	A (Fold activation>200%)	A (EC1.5<1.0 μM)
O=C(Nc1cccc2c(=O)n(CCN3CCCC3)c(-c3cccc(C(F)(F)F)c3)nc12)c1cnccn1 [Compound 235]	A (Fold activation>200%)	B (EC1.5 1-25 μM)
Cn1c(-c2ccccc2Cl)nc2c(C(=O)Nc3ccccn3)cccc2c1=O [Compound 242]	B (Fold Activation<200%)	B (EC1.5 1-25 μM)
Cn1c(-c2cccc(Cl)c2)nc2c(C(=O)Nc3cccnc3)cccc2c1=O [Compound 243]	B (Fold Activation<200%)	B (EC1.5 1-25 μM)
Cn1c(-c2ccc(Cl)cc2)nc2c(C(=O)Nc3ccccn3)cccc2c1=O [Compound 244]	B (Fold Activation<200%)	C (EC1.5>25 μM)
Cn1c(-c2ccc(OC(F)(F)F)cc2)nc2c(NC(=O)c3cnccn3)cccc2c1=O [Compound 252]	B (Fold Activation<200%)	C (EC1.5>25 μM)
Cn1c(-c2cccc(C#N)c2)nc2c(C(=O)Nc3ccccn3)cccc2c1=O [Compound 253]	B (Fold Activation<200%)	C (EC1.5>25 μM)
Cn1c(-c2ccc(C#N)cc2)nc2c(C(=O)Nc3ccccn3)cccc2c1=O [Compound 254]	B (Fold Activation<200%)	C (EC1.5>25 μM)
Cn1c(-c2ccccn2)nc2c(C(=O)Nc3ccccn3)cccc2c1=O [Compound 255]	B (Fold Activation<200%)	C (EC1.5>25 μM)
Cn1c(-c2cccnc2)nc2c(C(=O)Nc3ccccn3)cccc2c1=O [Compound 256]	B (Fold Activation<200%)	C (EC1.5>25 μM)
Cn1c(-c2ccncn2)nc2c(C(=O)Nc3ccccn3)cccc2c1=O [Compound 257]	B (Fold Activation<200%)	C (EC1.5>25 μM)
Cn1c(-c2cnccn2)nc2c(C(=O)Nc3ccccn3)cccc2c1=O [Compound 258]	B (Fold Activation<200%)	C (EC1.5>25 μM)
Cn1c(-c2ncccn2)nc2c(C(=O)Nc3ccccn3)cccc2c1=O [Compound 259]	B (Fold Activation<200%)	C (EC1.5>25 μM)
Cn1c(-c2cncnc2)nc2c(C(=O)Nc3ccccn3)cccc2c1=O [Compound 260]	B (Fold Activation<200%)	C (EC1.5>25 μM)
Cn1cnc(-c2nc3c(C(=O)Nc4ccccn4)cccc3c(=O)n2C)c1 [Compound 261]	B (Fold Activation<200%)	C (EC1.5>25 μM)
Cn1cncc1-c1nc2c(C(=O)Nc3ccccn3)cccc2c(=O)n1C [Compound 262]	B (Fold Activation<200%)	C (EC1.5>25 μM)
Cn1cc(-c2nc3c(C(=O)Nc4ccccn4)cccc3c(=O)n2C)cn1 [Compound 263]	B (Fold Activation<200%)	C (EC1.5>25 μM)
Cn1nccc1-c1nc2c(C(=O)Nc3ccccn3)cccc2c(=O)n1C [Compound 264]	B (Fold Activation<200%)	C (EC1.5>25 μM)

The remaining lines, values ahead:

% Fold Act. (percent maximum fold activation)	EC1.5 μM	SMILES
A (Fold activation>200%)	B (EC1.5 1-25 μM)	Cn1cncc1C(=O)Nc1cccc2c(=O)n(C)c(-c3cccc(C(F)(F)F)c3)nc12 [Compound 236]
B (Fold Activation<200%)	B (EC1.5 1-25 μM)	Cn1c(-c2cccc(C(F)(F)F)c2)nc2c(NC(=O)c3ccncc3)cccc2c1=O [Compound 237]
A (Fold activation>200%)	B (EC1.5 1-25 μM)	Cn1ccnc1C(=O)Nc1cccc2c(=O)n(C)c(-c3cccc(C(F)(F)F)c3)nc12 [Compound 238]
A (Fold activation>200%)	A (EC1.5<1.0 μM)	Cn1c(-c2cccc(C(F)(F)F)c2)nc2c(NC(=O)c3ccccn3)cccc2c1=O [Compound 239, N-(3-methyl-4-oxo-2-(3-(trifluoromethyl)phenyl)-3,4-dihydroquinazolin-8-yl)picolinamide]
A (Fold activation>200%)	B (EC1.5 1-25 μM)	Cn1c(-c2cccc(C(F)(F)F)c2)nc2c(NC(=O)c3cccnc3)cccc2c1=O [Compound 240]
B (Fold Activation<200%)	C (EC1.5>25 μM)	Cn1c(-c2cccc(C(F)(F)F)c2)nc2c(NC(=O)c3cncnc3)cccc2c1=O [Compound 241]
A (Fold activation>200%)	A (EC1.5<1.0 μM)	Cn1c(-c2cccc(C(F)(F)F)c2)nc2c(NC(=O)c3ccncn3)cccc2c1=O [Compound 245]
A (Fold activation>200%)	A (EC1.5<1.0 μM)	Cn1cnc(C(=O)Nc2cccc3c(=O)n(C)c(-c4cccc(C(F)(F)F)c4)nc23)c1 [Compound 246]
B (Fold Activation<200%)	B (EC1.5 1-25 μM)	Cn1ccc(C(=O)Nc2cccc3c(=O)n(C)c(-c4cccc(C(F)(F)F)c4)nc23)n1 [Compound 247]
A (Fold activation>200%)	A (EC1.5<1.0 μM)	Cn1nccc1C(=O)Nc1cccc2c(=O)n(C)c(-c3cccc(C(F)(F)F)c3)nc12 [Compound 248]
A (Fold activation>200%)	A (EC1.5<1.0 μM)	Cn1c(-c2cccc(C(F)(F)F)c2)nc2c(NC(=O)c3ncccn3)cccc2c1=O [Compound 249]
B (Fold Activation<200%)	C (EC1.5>25 μM)	Cn1c(-c2cccc(C(F)(F)F)c2)nc2c(NC(=O)c3cocn3)cccc2c1=O [Compound 250]
B (Fold Activation<200%)	B (EC1.5 1-25 μM)	Cn1c(-c2ccc(C(F)(F)F)cc2)nc2c(NC(=O)c3cnccn3)cccc2c1=O [Compound 251]
